From US8952024B2, “Herbicidal pyrimidone derivatives” (E I du Pont de Nemours and Company, priority 2009, dated 2015)

Columns and labels:
Assay type in all cases: in vivo
[1] = test system: bermudagrass (Cynodon dactylon); assay: Test B pre-/postemergence plant response
Method in brief: (§1)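 Response scores were assigned visually after 13 to 15 days in a greenhouse, comparing treated pots with controls on a 0–100 scale where 100 denotes complete control. Preemergence treatments went onto freshly seeded loam/sand soil; postemergence treatments onto plants 2 to 18 cm tall.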

[2] = test system: cocklebur (Xanthium strumarium); assay: Test B pre-/postemergence plant response
Method in brief: as §1

corn (Zea mays) = assay: Test B pre-/postemergence plant response
Method in brief: as §1

[3] = test system: giant foxtail (Setaria faberii); assay: Test B pre-/postemergence plant response
Method in brief: as §1

[4] = test system: green foxtail (Setaria viridis); assay: Test B pre-/postemergence plant response
Method in brief: as §1

[5] = test system: johnsongrass (Sorghum halepense); assay: Test B pre-/postemergence plant response
Method in brief: as §1

kochia (Kochia scoparia) = assay: Test B pre-/postemergence plant response
Method in brief: as §1

[6] = test system: lambsquarters (Chenopodium album); assay: Test B pre-/postemergence plant response
Method in brief: as §1

[7] = test system: pigweed (Amaranthus retroflexus); assay: Test B pre-/postemergence plant response
Method in brief: as §1

[8] = test system: ragweed (common ragweed, Ambrosia elatior); assay: Test B pre-/postemergence plant response
Method in brief: as §1

soybean (Glycine max) = assay: Test B pre-/postemergence plant response
Method in brief: as §1

wild oat (Avena fatua) = assay: Test B pre-/postemergence plant response
Method in brief: as §1

[9] = test system: barnyardgrass (Echinochloa crus-galli); assay: Test B flooded paddy test; details: for Plant response rating, Barnyardgrass: Flood (flooded paddy test), 13 to 15 days
Method in brief: (§2)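 Flooded-pot test: water raised to 3 cm above soil when treating, compound put in the water, level unchanged thereafter. Plants were at 2 leaves. Readout after 13 to 15 days, visual, relative to controls; 0 signifies no effect and 100 complete control.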

[10] = test system: ducksalad (Heteranthera limosa); assay: Test B flooded paddy test; details: for Plant response rating, Ducksalad: Flood (flooded paddy test), 13 to 15 days
Method in brief: as §2

rice (Oryza sativa) = assay: Test B flooded paddy test; details: for Plant response rating, Rice: Flood (flooded paddy test), 13 to 15 days
Method in brief: as §2

[11] = test system: umbrella sedge (Cyperus difformis); assay: Test B flooded paddy test; details: for Plant response rating, Sedge, Umbrella: Flood (flooded paddy test), 13 to 15 days
Method in brief: as §2

[12] = 250 g ai/ha, Preemergence, 0 to 100 scale
[13] = Postemergence, 31 g ai/ha, scale 0 to 100 (0 no effect, 100 complete control)
[14] = Postemergence, 62 g ai/ha, scale 0 (no effect) to 100 (complete control), 13 to 15 days
[15] = Postemergence, 250 g ai/ha, scale 0 to 100
[16] = Preemergence, 31 g ai/ha, scale 0 to 100 (0 no effect, 100 complete control)
[17] = Preemergence, 62 g ai/ha, scale 0 to 100, 0 no effect, 100 complete control
[18] = Preemergence, 125 g ai/ha, 0 to 100 scale
[19] = Postemergence, 125 g ai/ha, visual rating after 13 to 15 days, scale 0 (no effect) to 100 (complete control)
[20] = 250 g ai/ha, flooded paddy test, visual rating on 0 to 100 scale (0 no effect, 100 complete control) after 13 to 15 days
[21] = 31 g ai/ha, scale of 0 to 100 where 0 is no effect and 100 is complete control
[22] = 62 g ai/ha, scale 0 to 100, 0 is no effect, 100 is complete control
[23] = 125 g ai/ha, scale 0 to 100, 0 is no effect, 100 is complete control

## 5-[(2-hydroxy-6-oxo-1-cyclohexen-1-yl)carbonyl]-3-phenyl-2-(3-pyridinyl)-4(3H)-pyrimidone [Compound 113]
[1]; [12]
  Plant response rating, Bermudagrass: 98
[1]; [13]
  Plant response rating, Bermudagrass: 35
[1]; [14]
  Plant response rating, Bermudagrass: 45
[1]; Postemergence, 125 g ai/ha, scale 0 to 100 (0 no effect, 100 complete control), 13 to 15 days
  Plant response rating, Bermudagrass: 65
[1]; [15]
  Bermudagrass plant response rating: 70
[1]; [16]
  Plant response rating, Bermudagrass: 0
[1]; [17]
  Plant response rating, Bermudagrass: 0
[1]; [18]
  Bermudagrass plant response rating: 85
[2]; [12]
  Plant response rating, Cocklebur: 75
[2]; [13]
  Plant response rating, Cocklebur: 45
[2]; [14]
  Plant response rating, Cocklebur: 45
[2]; [19]
  Plant response rating, Cocklebur: 65
[2]; [15]
  Cocklebur plant response rating: 70
[2]; [16]
  Plant response rating, Cocklebur: 0
[2]; [17]
  Plant response rating, Cocklebur: 0
[2]; [18]
  Cocklebur plant response rating: 0
Corn (Zea mays); [12]
  Plant response rating, Corn: 0
Corn (Zea mays); [13]
  Plant response rating, Corn: 0
Corn (Zea mays); [14]
  Plant response rating, Corn: 0
Corn (Zea mays); [19]
  Plant response rating, Corn: 0
Corn (Zea mays); [15]
  Corn plant response rating: 10
Corn (Zea mays); [16]
  Plant response rating, Corn: 0
Corn (Zea mays); [17]
  Plant response rating, Corn: 0
Corn (Zea mays); [18]
  Corn plant response rating: 0
[3]; [12]
  Plant response rating, Foxtail, Giant: 25
[3]; [13]
  Plant response rating, Foxtail, Giant: 20
[3]; [14]
  Plant response rating, Foxtail, Giant: 55
[3]; [19]
  Plant response rating, Foxtail, Giant: 55
[3]; [15]
  Foxtail, Giant plant response rating: 60
[3]; [16]
  Plant response rating, Foxtail, Giant: 0
[3]; [17]
  Plant response rating, Foxtail, Giant: 0
[3]; [18]
  Foxtail, Giant plant response rating: 0
[4]; [12]
  Plant response rating, Foxtail, Green: 0
[4]; [13]
  Plant response rating, Foxtail, Green: 5
[4]; [14]
  Plant response rating, Foxtail, Green: 20
[4]; [19]
  Plant response rating, Foxtail, Green: 30
[4]; [15]
  Foxtail, Green plant response rating: 40
[4]; [16]
  Plant response rating, Foxtail, Green: 0
[4]; [17]
  Plant response rating, Foxtail, Green: 0
[4]; [18]
  Foxtail, Green plant response rating: 0
[5]; [12]
  Plant response rating, Johnsongrass: 0
[5]; [13]
  Plant response rating, Johnsongrass: 0
[5]; [14]
  Plant response rating, Johnsongrass: 0
[5]; [19]
  Plant response rating, Johnsongrass: 0
[5]; [15]
  Johnsongrass plant response rating: 0
[5]; [16]
  Plant response rating, Johnsongrass: 0
[5]; [17]
  Plant response rating, Johnsongrass: 0
[5]; [18]
  Johnsongrass plant response rating: 0
Kochia (Kochia scoparia); [12]
  Plant response rating, Kochia: 100
Kochia (Kochia scoparia); [13]
  Plant response rating, Kochia: 0
Kochia (Kochia scoparia); [14]
  Plant response rating, Kochia: 45
Kochia (Kochia scoparia); [19]
  Plant response rating, Kochia: 45
Kochia (Kochia scoparia); [15]
  Kochia plant response rating: 50
Kochia (Kochia scoparia); [16]
  Plant response rating, Kochia: 15
Kochia (Kochia scoparia); [17]
  Plant response rating, Kochia: 100
Kochia (Kochia scoparia); [18]
  Kochia plant response rating: 100
[6]; [12]
  Plant response rating, Lambsquarters: 100
[6]; [13]
  Plant response rating, Lambsquarters: 0
[6]; [14]
  Plant response rating, Lambsquarters: 65
[6]; [19]
  Plant response rating, Lambsquarters: 65
[6]; [15]
  Lambsquarters plant response rating: 75
[6]; [16]
  Plant response rating, Lambsquarters: 100
[6]; [17]
  Plant response rating, Lambsquarters: 100
[6]; [18]
  Lambsquarters plant response rating: 100
[7]; [12]
  Plant response rating, Pigweed: 100
[7]; [13]
  Plant response rating, Pigweed: 75
[7]; [14]
  Plant response rating, Pigweed: 75
[7]; [19]
  Plant response rating, Pigweed: 90
[7]; [15]
  Pigweed plant response rating: 98
[7]; [16]
  Plant response rating, Pigweed: 100
[7]; [17]
  Plant response rating, Pigweed: 100
[7]; [18]
  Pigweed plant response rating: 100
[8]; [12]
  Plant response rating, Ragweed: 90
[8]; [13]
  Plant response rating, Ragweed: 50
[8]; [14]
  Plant response rating, Ragweed: 65
[8]; [19]
  Plant response rating, Ragweed: 80
[8]; [15]
  Ragweed plant response rating: 85
[8]; [16]
  Plant response rating, Ragweed: 0
[8]; [17]
  Plant response rating, Ragweed: 0
[8]; [18]
  Ragweed plant response rating: 15
Soybean (Glycine max); [12]
  Plant response rating, Soybean: 30
Soybean (Glycine max); [13]
  Plant response rating, Soybean: 60
Soybean (Glycine max); [14]
  Plant response rating, Soybean: 65
Soybean (Glycine max); [19]
  Plant response rating, Soybean: 75
Soybean (Glycine max); [15]
  Soybean plant response rating: 85
Soybean (Glycine max); [16]
  Plant response rating, Soybean: 0
Soybean (Glycine max); [17]
  Plant response rating, Soybean: 0
Soybean (Glycine max); [18]
  Soybean plant response rating: 20
Wild oat (Avena fatua); [12]
  Plant response rating, Oat, Wild: 0
Wild oat (Avena fatua); [13]
  Plant response rating, Oat, Wild: 0
Wild oat (Avena fatua); [14]
  Plant response rating, Oat, Wild: 0
Wild oat (Avena fatua); [19]
  Plant response rating, Oat, Wild: 0
Wild oat (Avena fatua); [15]
  Oat, Wild plant response rating: 10
Wild oat (Avena fatua); [16]
  Plant response rating, Oat, Wild: 0
Wild oat (Avena fatua); [17]
  Plant response rating, Oat, Wild: 0
Wild oat (Avena fatua); [18]
  Oat, Wild plant response rating: 0
[9]; [20]
  Plant response rating, Flood, Barnyardgrass: 0
[9]; [21]
  Plant response rating, Barnyardgrass: 0
[9]; [22]
  Plant response rating, Barnyardgrass: 0
[9]; [23]
  Plant response rating, Barnyardgrass: 0
[10]; [20]
  Plant response rating, Flood, Ducksalad: 0
[10]; [21]
  Plant response rating, Ducksalad: 0
[10]; [22]
  Plant response rating, Ducksalad: 0
[10]; [23]
  Plant response rating, Ducksalad: 0
Rice (Oryza sativa); [20]
  Plant response rating, Flood, Rice: 0
Rice (Oryza sativa); [21]
  Plant response rating, Rice: 0
Rice (Oryza sativa); [22]
  Plant response rating, Rice: 0
Rice (Oryza sativa); [23]
  Plant response rating, Rice: 0
[11]; [20]
  Plant response rating, Flood, Sedge, Umbrella: 0
[11]; [21]
  Plant response rating, Sedge, Umbrella: 0
[11]; [22]
  Plant response rating, Sedge, Umbrella: 0
[11]; [23]
  Plant response rating, Sedge, Umbrella: 0
